The test system of the test is breast cancer cell lines BT20, MDA-MB-231 and SUM-i 159. The test can be described thus: Drug response: breast cancer cell line proliferation inhibition. It is filed as cell-based. To be noted: same dose as in the triple-drug combinations, BT20, MDA-MB-231, SUM-i 159, FIG. 9. The protocol: The breast cancer cell lines BT20, MDA-MB-231 and SUM-i 159 were treated with HDAC inhibitor (MS275), ISP inhibitor (17-AAG), mTOR inhibitor (Niclosamide), polo-like kinase inhibitor (1312536) and histone demethylase inhibitor (GSK-J4).
For the compound `CCOC(=O)CCNc1cc(N2CCc3ccccc3CC2)nc(-c2ccccn2)n1` [GSK-J4], the “inhibition of breast cancer cell line proliferation, single treatment” value (shortened to “inhibition”) is given as “ineffective”.

For the compound `Nc1ccccc1NC(=O)c1ccc(CNC(=O)OCc2cccnc2)cc1` [MS275, Entinostat], the “inhibition” value is on record as “ineffective”.

For the compound `O=C(Nc1ccc([N+](=O)[O-])cc1Cl)c1cc(Cl)ccc1O` [Niclosamide], the “inhibition” value is “ineffective”.

Regarding `CC[C@@H]1C(=O)N(C)c2cnc(Nc3ccc(C(=O)NC4CCN(C)CC4)cc3OC)nc2N1C1CCCC1` [compound 1312536], the “inhibition” value is “ineffective”.

The record behind these values is patent publication US20250305055A1, “PROGNOSTIC/PREDICTIVE BREAST CANCER SIGNATURE” (priority 2021, published 2025).
